pKi: −log10 of the molar value.
Molecular target: T1, cynomolgus BK1-receptor (Macaca fascicularis, UniProt Q3BCU0)
T1 construct: expressed in transfected cells; host or cells: CHO cells (homogenate)
T1 sequence (Q3BCU0 1-352): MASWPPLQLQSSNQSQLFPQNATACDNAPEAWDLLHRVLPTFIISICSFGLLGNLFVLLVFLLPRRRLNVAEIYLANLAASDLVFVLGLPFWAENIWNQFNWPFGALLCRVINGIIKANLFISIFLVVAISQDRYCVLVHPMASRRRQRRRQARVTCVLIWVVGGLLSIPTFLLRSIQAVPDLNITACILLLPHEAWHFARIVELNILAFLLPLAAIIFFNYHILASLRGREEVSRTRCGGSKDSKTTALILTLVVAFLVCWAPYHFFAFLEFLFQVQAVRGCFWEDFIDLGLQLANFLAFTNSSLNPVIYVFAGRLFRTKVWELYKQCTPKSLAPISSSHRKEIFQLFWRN
Assay: cynoBK1-receptor binding assay
Conditions: CHO cells expressing cynomolgus BK1-receptor, radioligand kallidine (DesArg10,Leu9); for inhibition at 10 µM: at 10 μgmol/L
Summary of the method: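 Radioligand competition on homogenates of CHO cells expressing cynomolgus BK1 receptor (50 to 250 μg protein/assay), incubated 60-180 minutes at ambient temperature with 0.5 to 5.0 nM [3H]kallidine (DesArg10,Leu9) plus increasing test compound. Filtration binding; non-specific defined with 1.0 μM kallidine (DesArg10); Ki from non-linear curve fitting.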

pKi	inhibition at 10 µM	SMILES
7.82	–	O=C(NC1(C(=O)NCc2ccc(Nc3ccc(Cl)cc3C(F)(F)F)cn2)CC1)c1ccc(NC2CC2)nc1 [(389)]
7.00	–	O=C(NC1(C(=O)NCc2ccc(Nc3ccc(Cl)cc3C(F)(F)F)cn2)CC1)C(F)(F)F [(362)]
7.62	–	O=C(NC1(C(=O)NCc2ccc(Nc3ccc(Cl)cc3C(F)(F)F)cn2)CC1)c1cn[nH]c1 [(372)]
< 6.30	69%	N#Cc1cc(OC(F)(F)F)ccc1Nc1ccc(CNC(=O)C2(NC(=O)c3cncnc3)CC2)cc1 [(161)]
7.77	104%	N#Cc1cc(Cl)ccc1Nc1ccc(CNC(=O)C2(NC(=O)c3cncnc3)CC2)cc1 [(162)]
–	65%	O=C(NC1(C(=O)NCc2ccc(Nc3ccccc3)cc2)CC1)c1cncnc1 [(3)]
7.09	–	Cc1ncc(C(=O)NC2(C(=O)NCc3ccc(Nc4ccc(F)cc4C(F)(F)F)cn3)CC2)s1 [(303)]
6.87	109%	O=C(N[C@@]1(C(=O)NCc2ccc(Nc3ccccc3C(F)(F)F)cc2)CCOC1)c1cnc(O)nc1 [(90)]
7.89	111%	O=C(CC(F)(F)F)NC1(C(=O)NCc2ccc(Nc3ccc(F)cc3C(F)(F)F)cc2)CC1 [(30)]
6.88	–	O=C(N[C@@]1(C(=O)NCc2ccc(Nc3ccccc3C(F)(F)F)cc2)CCOC1)c1cccc(O)c1 [(97)]
–	60%	CN1CCC(C(=O)NC2(C(=O)NCc3ccc(Nc4ccccc4C(F)(F)F)cc3)CC2)CC1 [(22)]
–	63%	O=C(N[C@@]1(C(=O)NCc2ccc(Nc3ccccc3C(F)(F)F)cc2)CCOC1)c1cccc(Cl)n1 [(67)]
6.74	98%	Cn1ccc(C(=O)NC2(C(=O)NCc3ncc(Nc4c(F)cccc4C(F)(F)F)cc3F)CC2)cc1=O [(132)]
–	68%	O=C(NC1(C(=O)NCc2ccc(Nc3ccccc3C(F)(F)F)cc2)CC1)c1ccccn1 [(21)]
6.40	–	CNc1cncc(C(=O)N[C@@]2(C(=O)NCc3ncc(Nc4c(F)cccc4C(F)(F)F)cc3Cl)CCOC2)c1 [(259)]
6.82	–	Nc1cncc(C(=O)N[C@@]2(C(=O)NCc3ncc(Nc4c(F)cccc4C(F)(F)F)cc3Cl)CCOC2)c1 [(237)]
6.51	63%	O=C(NC1(C(=O)NCc2ccc(Nc3ccc(C(F)(F)F)cc3C(F)(F)F)cn2)CC1)c1cncnc1 [(52)]
8.05	113%	Cc1ncc(C(=O)N[C@@]2(C(=O)NCc3ccc(Nc4ccccc4C(F)(F)F)cc3)CCOC2)cn1 [(83)]
–	95%	O=C(N[C@@]1(C(=O)NCc2ccc(Nc3ccccc3C(F)(F)F)cc2)CCOC1)c1ccc(F)nc1 [(107)]
7.35	–	O=C(CC(F)(F)F)NC1(C(=O)NCc2ccc(Nc3ccc(Cl)cc3C(F)(F)F)cn2)CC1 [(363)]
6.44	103%	Cc1cccc(C(F)(F)F)c1Nc1ccc(CNC(=O)C2(NC(=O)c3cncnc3)CC2)nc1 [(49)]
7.60	100%	O=C(NC1(C(=O)NCc2ccc(Nc3ccccc3Cl)cc2)CC1)c1cncnc1 [(2)]
6.51	–	COc1cncc(C(=O)N[C@@]2(C(=O)NCc3ccc(Nc4ccc(Cl)cc4C(F)(F)F)cc3)CCOC2)c1 [(337)]

pKi	inhibition at 10 µM	SMILES
–	99%	Nc1ncc(C(=O)NC2(C(=O)NCc3ccc(Nc4ccc(F)cc4C(F)(F)F)cn3)CC2)s1 [(184)]
7.05	101%	Nc1cncc(C(=O)N[C@@]2(C(=O)NCc3ncc(Nc4c(F)cccc4C(F)(F)F)cc3F)CCOC2)c1 [(154)]
6.34	–	O=C(CC(F)(F)F)N[C@@]1(C(=O)NCc2ncc(Nc3c(F)cccc3C(F)(F)F)cc2Cl)CCOC1 [(261)]
6.30	–	O=C(NC1(C(=O)NCc2ccc(Nc3c(F)cccc3Br)cn2)CC1)c1cncnc1 [(326)]
7.01	109%	O=C(N[C@@]1(C(=O)NCc2ccc(Nc3ccccc3C(F)(F)F)cc2)CCOC1)c1ccnnc1 [(64)]
8.62	113%	O=C(NC1(C(=O)NCc2ncc(Nc3c(F)cccc3C(F)(F)F)cc2F)CC1)c1cncnc1 [(120)]
8.05	–	Nc1cncc(C(=O)N[C@@]2(C(=O)NCc3ncc(Nc4ccc(F)cc4C(F)(F)F)cc3Cl)CCOC2)c1 [(219)]
–	42%	O=C1CCCC(C(=O)N[C@@]2(C(=O)NCc3ccc(Nc4ccccc4C(F)(F)F)cc3)CCOC2)C1 (stereo partly drawn) [(69)]
7.31	–	O=C(NC1(C(=O)NCc2ccc(Nc3ccc(F)cc3C(F)(F)F)cn2)CC1)c1cncc(Cl)c1 [(339)]
7.24	–	Nc1cncc(C(=O)N[C@@]2(C(=O)NCc3ccc(Nc4ccc(Cl)cc4C(F)(F)F)cc3)CCOC2)c1 [(321)]
8.12	100%	O=C(NC1(C(=O)NCc2ccc(Nc3ccc(Br)cc3C(F)(F)F)cn2)CC1)c1cncc(O)c1 [(141)]
–	20%	CCN(c1ccccc1)c1ccc(CNC(=O)C2(NC(=O)c3cncnc3)CC2)cc1 [(111)]
–	84%	O=C(N[C@@]1(C(=O)NCc2ccc(Nc3ccccc3C(F)(F)F)cc2)CCOC1)C1CCOC1 (stereo partly drawn) [(60)]
< 6.30	94%	O=C(Cc1cncnc1)NC1(C(=O)NCc2ccc(Nc3ccccc3C(F)(F)F)cc2)CC1 [(34)]
–	27%	CN(c1ccccc1)c1ccc(CNC(=O)C2(NC(=O)c3cncnc3)CC2)cc1 [(109)]
–	80%	O=C1CCC(C(=O)N[C@@]2(C(=O)NCc3ccc(Nc4ccccc4C(F)(F)F)cc3)CCOC2)CN1 (stereo partly drawn) [(76)]
7.22	–	Cn1cnc2cc(C(=O)NC3(C(=O)NCc4ccc(Nc5ccc(Cl)cc5C(F)(F)F)cn4)CC3)ccc21 [(264)]
7.68	113%	N#Cc1cc(F)ccc1Nc1ccc(CNC(=O)C2(NC(=O)c3cncnc3)CC2)cc1 [(36)]
–	78%	O=C(N[C@@]1(C(=O)NCc2ccc(Nc3ccccc3C(F)(F)F)cc2)CCOC1)c1cnccn1 [(96)]
7.44	94%	O=C(N[C@@]1(C(=O)NCc2ccc(Nc3ccc(F)cc3C(F)(F)F)cn2)CCOC1)c1cncnc1 [(43)]
6.73	–	CN(C)c1ncc(C(=O)NC2(C(=O)NCc3ccc(Nc4ccc(Cl)cc4C(F)(F)F)cn3)CC2)cn1 [(210)]
–	100%	O=C(NC1(C(=O)NCc2ccc(Nc3ccc(Cl)cc3C(F)(F)F)cn2)CC1)c1cncs1 [(149)]
7.00	108%	O=C(N[C@@]1(C(=O)NCc2ccc(Nc3ccccc3C(F)(F)F)cc2)CCOC1)c1ccnc(O)c1 [(86)]

pKi	inhibition at 10 µM	SMILES
7.12	–	Nc1nc2cc(C(=O)NC3(C(=O)NCc4ccc(Nc5ccc(Cl)cc5C(F)(F)F)cn4)CC3)ccc2[nH]1 [(265)]
8.72	–	Cc1ncc(C(=O)NC2(C(=O)NCc3ncc(Nc4ccc(F)cc4C(F)(F)F)cc3C)CC2)cn1 [(344)]
6.65	–	O=C(N[C@@]1(C(=O)NCc2ccc(Nc3ccc(F)cc3C(F)(F)F)cc2)CCOC1)c1cnc2[nH]ccc2c1 [(383)]
8.26	–	Cc1ncc(C(=O)N[C@@]2(C(=O)NCc3ccc(Nc4ccccc4C(F)(F)F)cc3F)CCOC2)cn1 [(279)]
7.06	105%	O=C(N[C@@]1(C(=O)NCc2ccc(Nc3ccccc3C(F)(F)F)cc2)CCOC1)c1cc(O)cc(O)c1 [(102)]
8.14	–	CNc1ccc(C(=O)NC2(C(=O)NCc3ccc(Nc4ccc(Br)cc4C(F)(F)F)cn3)CC2)cn1 [(343)]
7.35	–	COc1ncc(C(=O)N[C@@]2(C(=O)NCc3ccc(Nc4ccc(F)cc4C(F)(F)F)cc3)CCOC2)cn1 [(300)]
8.85	–	Nc1ncc(C(=O)NC2(C(=O)NCc3ccc(Nc4ccc(Cl)cc4C(F)(F)F)cn3)CC2)cn1 [(370)]
8.96	–	Cc1ncc(C(=O)NC2(C(=O)NCc3ncc(Nc4ccccc4C(F)(F)F)cc3Cl)CC2)cn1 [(301)]
7.20	96%	CN(C)c1ncc(C(=O)NC2(C(=O)NCc3ccc(Nc4ccc(Br)cc4C(F)(F)F)cn3)CC2)cn1 [(175)]
–	7%	Cc1ccccc1N(C)c1ccc(CNC(=O)C2(NC(=O)c3cncnc3)CC2)cc1 [(113)]
8.00	–	Cc1cc(Nc2ccc(Cl)cc2C(F)(F)F)cnc1CNC(=O)C1(NC(=O)c2cncc(N)c2)CC1 [(361)]
–	86%	O=C(N[C@@]1(C(=O)NCc2ccc(Nc3ccccc3C(F)(F)F)cc2)CCOC1)c1ccncc1 [(95)]
8.07	107%	Nc1cncc(C(=O)N[C@@]2(C(=O)NCc3ncc(Nc4ccc(F)cc4C(F)(F)F)cc3F)CCOC2)c1 [(156)]
7.92	–	Nc1cncc(C(=O)NC2(C(=O)NCc3ccc(Nc4ccc(Cl)cc4C(F)(F)F)cn3)CC2)c1 [(217)]
7.85	–	CC(=O)Nc1ccc(C(=O)NC2(C(=O)NCc3ccc(Nc4ccc(F)cc4C(F)(F)F)cn3)CC2)cn1 [(251)]
7.05	–	COc1ncc(C(=O)N[C@@]2(C(=O)NCc3ccc(Nc4ccc(F)cc4C(F)(F)F)cn3)CCOC2)cn1 [(327)]
–	96%	O=C(CC1CC1)NC1(C(=O)NCc2ccc(Nc3ccccc3C(F)(F)F)cc2)CC1 [(19)]
7.55	–	N#Cc1ccccc1Nc1ccc(CNC(=O)C2(NC(=O)c3cncnc3)CC2)c(F)c1 [(296)]
–	56%	O=C(NC1(C(=O)NCc2ccc(Nc3ccccc3C(F)(F)F)cn2)CCCCC1)c1cncnc1 [(191)]
8.20	–	CNc1ncc(C(=O)N[C@@]2(C(=O)NCc3ncc(Nc4ccc(F)cc4C(F)(F)F)cc3Cl)CCOC2)cn1 [(224)]
